Results taken from patent publication US8658675B2, “Pyridin-4-yl derivatives” (Actelion Pharmaceuticals Ltd., priority 2009, dated 2014).

Key:
rat trachea rings [1] = test: Measurement of isometric force development: rat trachea ring constriction; set-up: species or system Female Wistar rats; conditions: compound at 10 μM; in % of the constriction induced by 50 mM KCl
human S1P1 receptor = human S1P1 receptor (Homo sapiens, UniProt P21453); test: GTPγS assay to determine EC50 values; format: biochemical; conditions: membranes of CHO cells expressing recombinant human S1P1 receptor; 35S-GTPγS binding
Description: GTPγS binding assays are performed in 96 well microtiter plates (Nunc, 442587) in a final volume of 200 μl, using membrane preparations of CHO cells expressing recombinant human S1P1 receptor. Assay conditions are 20 mM Hepes (Fluka, 54461), 100 mM NaCl (Fluka, 71378), 5 mM MgCl2 (Fluka, 63064), 0.1% BSA (Calbiochem, 126609), 1 μM GDP (Sigma, G-7127), 2.5% DMSO (Fluka, 41644), […] ^35S-GTPγS (Amersham Biosciences, SJ1320). The pH is 7.4. Test compounds are dissolved and diluted in 100% DMSO and pre-incubated at room temperature for 30 min in 150 μl of the above assay buffer, in the absence of ^35S-GTPγS. After addition of 50 μl of ^35S-GTPγS, the assay is incubated for 1 h at rt. The assay is terminated by transfer of the reaction mixture to a Multiscreen plate (Millipore, MAHFC1H60) using a cell harvester from Packard Biosciences, and the plates are washed with ice-cold 10 mM Na2HPO4/NaH2PO4 (70%/30%), dried, sealed at the bottom and, after addition of 25 μl MicroScint20 (Packard Biosciences, order#6013621), sealed on the top. Membrane-bound ^35S-GTPγS is measured with a TopCount from Packard Biosciences.
EC50 is the concentration of agonist inducing 50% of the maximal specific ^35S-GTPγS binding. Specific binding is determined by subtracting non-specific binding from maximal binding. Maximal binding is the amount of cpm bound to the Multiscreen plate in the presence of 10 μM of S1P. Non-specific binding is the amount of binding in the absence of an agonist in the assay.
Agonistic activities (EC50 values) of all exemplified compounds have been measured.

circulating lymphocytes = test: Assessment of in vivo efficacy: circulating lymphocytes after oral administration; set-up: species or system normotensive male Wistar rats; conditions: Rattus norvegicus, Lymphocyte; 6 h after oral administration of 10 mg/kg, male Wistar rats, compared to vehicle group; read-out: Lymphocyte counts
Description: The efficacy of the compounds of Formula (I) is assessed by measuring the circulating lymphocytes after oral administration of 3 to 30 mg/kg of a compound of Formula (I) to normotensive male Wistar rats. The animals are housed in climate-controlled conditions with a 12 h-light/dark cycle, and have free access to normal rat chow and drinking water. Blood is collected before and 3, 6 and 24 h after drug administration. Full blood is subjected to hematology using Advia Hematology system (Bayer Diagnostics, Zurich, Switzerland).
All data are presented as mean±SEM. Statistical analyses are performed by analysis of variance (ANOVA) using Statistica (StatSoft) and the Student-Newman-Keuls procedure for multiple comparisons. The null hypothesis is rejected when p<0.05.
Lymphocyte counts 6 h after oral administration have been measured for 23 out of 30 exemplified compounds and are in the range of −42% to −80% with an average of −63%.

rat trachea rings [2] = test: Measurement of isometric force development: rat trachea ring constriction; set-up: species or system Female Wistar rats; conditions: for potential to constrict rat trachea rings (comparison in words): compared to closest prior art analogues of WO 2008/029371 or to Example 2; for % trachea constriction at 1 μM: compound at 1 μM, in % of the constriction induced by 50 mM KCl
Description: Animals were obtained from RCC Ltd (Füllinsdorf, Switzerland). Female Wistar rats were euthanized by exposure to CO2. The tracheae were excised and rings from the lower segments were prepared. Rings of trachea were suspended in tissue baths (10 mL) containing Krebs-Henseleit buffer of the following composition (mM): NaCl 115; KCl 4.7; MgSO4 1.2; KH2PO4 1.5; CaCl2 2.5; NaHCO3 25; glucose 10. Bathing solution was maintained at 37° C. and aerated with 95% O2/5% CO2 (pH 7.4). A resting force of 2 g (20 mN) was applied to the ring preparation, and changes in force generation were measured using an isometric force recorder (EMKA Technologies Inc, Paris, France). Viability of rings was assessed by exposure to a depolarizing concentration of KCl (50 mM). Contraction of trachea was expressed as a percentage of the response to KCl.
All compounds were prepared as stock solutions of 0.3 mM in pure DMSO. Compounds were added to the bath (10 mL) in a volume of 33 μL to give a final bath concentration of DMSO of 0.33%.
Contraction of trachea was measured for 15 out of 30 exemplified compounds.

human S1P1 receptor, sequence (P21453 whole entry): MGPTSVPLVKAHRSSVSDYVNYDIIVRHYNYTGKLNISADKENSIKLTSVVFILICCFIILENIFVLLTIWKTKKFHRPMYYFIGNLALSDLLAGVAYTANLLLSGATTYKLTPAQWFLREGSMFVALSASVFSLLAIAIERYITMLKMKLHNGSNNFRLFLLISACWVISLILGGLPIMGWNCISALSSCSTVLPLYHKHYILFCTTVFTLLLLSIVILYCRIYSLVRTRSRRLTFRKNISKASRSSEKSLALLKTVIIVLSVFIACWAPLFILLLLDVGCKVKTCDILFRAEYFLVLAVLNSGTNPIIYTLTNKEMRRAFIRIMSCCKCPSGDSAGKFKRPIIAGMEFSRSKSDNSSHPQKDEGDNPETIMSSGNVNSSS

SMILES | % trachea constriction at 10 μM (rat trachea rings [1]) [%] | EC50 (human S1P1 receptor) [nM] | change in vivo at 10 mg/kg (circulating lymphocytes) [%] | potential to constrict rat trachea rings (comparison in words) (rat trachea rings [2]) | % trachea constriction at 1 μM (rat trachea rings [2]) [%]
CCc1cc(-c2noc(-c3cc(OC)nc(C4CCCC4)c3)n2)cc(C)c1OC[C@@H](O)CO [Example 2, (S)-3-{4-[5-(2-Cyclopentyl-6-methoxy-pyridin-4-yl)-[1,2,4]oxadiazol-3-yl]-2-ethyl-6-methyl-phenoxy}-propane-1,2-diol] | <5 | 0.9 | -70 | markedly reduced potential to constrict rat trachea rings | <5
COc1cc(-c2nc(-c3cc(C)c(NS(C)(=O)=O)c(Cl)c3)no2)cc(C2CCCC2)n1 [Example 12, N-{2-Chloro-4-[5-(2-cyclopentyl-6-methoxy-pyridin-4-yl)-[1,2,4]oxadiazol-3-yl]-6-methyl-phenyl}-methanesulfonamide] | <5 | 0.3 | -64 | – | <5
CCc1cc(-c2noc(-c3cc(OC)nc(C4CCCCC4)c3)n2)cc(C)c1OC[C@@H](O)CNC(=O)CO [Example 8, N-((2S)-3-{4-[5-(2-Cyclohexyl-6-methoxy-pyridin-4-yl)-[1,2,4]oxadiazol-3-yl]-2-ethyl-6-methyl-phenoxy}-2-hydroxy-propyl)-2-hydroxy-acetamide] | – | 10.8 | -58 | – | <5
CCc1cc(-c2noc(-c3cc(OC)nc(C(CC)CC)c3)n2)cc(C)c1OC[C@@H](O)CNC(=O)CO [Example 6, N-[(2S)-3-(2-Ethyl-4-{5-[2-(1-ethyl-propyl)-6-methoxy-pyridin-4-yl]-[1,2,4]oxadiazol-3-yl}-6-methyl-phenoxy)-2-hydroxy-propyl]-2-hydroxy-acetamide] | 100 | 0.6 | -59 | significantly reduced potential to constrict rat trachea rings | <5
CCc1cc(-c2noc(-c3cc(OC)nc(C(CC)CC)c3)n2)cc(C)c1OC[C@@H](O)CO [Example 1, (S)-3-(2-Ethyl-4-{5-[2-(1-ethyl-propyl)-6-methoxy-pyridin-4-yl]-[1,2,4]oxadiazol-3-yl}-6-methyl-phenoxy)-propane-1,2-diol] | 24 | 2.7 | -63 | significantly reduced potential to constrict rat trachea rings | <5
CCc1cc(-c2noc(-c3cc(OC)nc(C(CC)CC)c3)n2)cc(C)c1NS(C)(=O)=O [Example 18, N-(2-Ethyl-4-{5-[2-(1-ethyl-propyl)-6-methoxy-pyridin-4-yl]-[1,2,4]oxadiazol-3-yl}-6-methyl-phenyl)-methanesulfonamide] | <5 | 2.5 | -42 | – | <5
CCc1cc(-c2noc(-c3cc(OC)nc(C4CCCC4)c3)n2)cc(C)c1OC[C@@H](O)CN(C)C(=O)CO [Example 10, N-((2S)-3-{4-[5-(2-Cyclopentyl-6-methoxy-pyridin-4-yl)-[1,2,4]oxadiazol-3-yl]-2-ethyl-6-methyl-phenoxy}-2-hydroxy-propyl)-2-hydroxy-N-methyl-acetamide] | <5 | 2.6 | -68 | – | <5
CCc1cc(-c2noc(-c3cc(OC)nc(C4CCCCC4)c3)n2)cc(C)c1OC[C@@H](O)CO [Example 4, (S)-3-{4-[5-(2-Cyclohexyl-6-methoxy-pyridin-4-yl)-[1,2,4]oxadiazol-3-yl]-2-ethyl-6-methyl-phenoxy}-propane-1,2-diol] | – | 6.4 | -61 | – | <5
CCc1cc(-c2noc(-c3cc(CCC(C)C)nc(OC)c3)n2)cc(C)c1OC[C@@H](O)CNC(=O)CO [Example 16, N-[(2S)-3-(2-Ethyl-4-{5-[2-methoxy-6-(3-methyl-butyl)-pyridin-4-yl]-[1,2,4]oxadiazol-3-yl}-6-methyl-phenoxy)-2-hydroxy-propyl]-2-hydroxy-acetamide] | – | 0.7 | -73 | markedly reduced potential to constrict rat trachea rings | <5
CCc1cc(-c2noc(-c3cc(OC)nc(C4CCCC4)c3)n2)cc(C)c1OC[C@@H](O)CNC(=O)CO [Example 7, N-((2S)-3-{4-[5-(2-Cyclopentyl-6-methoxy-pyridin-4-yl)-[1,2,4]oxadiazol-3-yl]-2-ethyl-6-methyl-phenoxy}-2-hydroxy-propyl)-2-hydroxy-acetamide] | – | 0.6 | -65 | markedly reduced potential to constrict rat trachea rings | 50
CCc1cc(-c2noc(-c3cc(OC)nc(C4CCCC4)c3)n2)cc(C)c1NS(C)(=O)=O [Example 19, N-{4-[5-(2-Cyclopentyl-6-methoxy-pyridin-4-yl)-[1,2,4]oxadiazol-3-yl]-2-ethyl-6-methyl-phenyl}-methanesulfonamide] | <5 | 1 | -61 | – | <5
CCc1cc(-c2nc(-c3cc(OC)nc(C4CCCC4)c3)no2)cc(C)c1OC[C@@H](O)CO [Example 21, (S)-3-{4-[3-(2-Cyclopentyl-6-methoxy-pyridin-4-yl)-[1,2,4]oxadiazol-5-yl]-2-ethyl-6-methyl-phenoxy}-propane-1,2-diol] | – | 0.7 | -62 | same low potential to constrict rat trachea rings | <5
